Test results reported in US9670242B2, “Tetracyclic anthraquinone derivatives” (Tianjin Hemay Bio-Tech Co., Ltd, priority 2012, dated 2017).

Columns and labels:
NCI-H446 cells = experiment: NCI-H446 cell growth inhibition test (MTT assay); type: cell-based, human; settings: growth inhibition at 222 nM, 70 h
Procedure, shortened: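 Human small cell lung cancer cells in RPMI-1640 with 10% FBS were seeded at 4000 per well and treated with compound for 70 h at 37° C, 5% CO2. MTT at 0.5 mg/mL was added for 3 h, formazan was dissolved in DMSO and OD read at 490 nm. Inhibition ratio was calculated against untreated and blank wells.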

[1] = Solubility of the compound in water; type: physicochemical
NCI-H460 cells = experiment: NCI-H460 cell growth inhibition test (MTT assay); type: cell-based, human; settings: NCI-460 cells (NCI-H460 in method), 72 h
Protocol: NCI-H460 Cell Growth Inhibition Test (MTT Assay)
(§1) II. Reagents and Consumable Materials
Culture medium: 90% RPMI1640+10% FBS (fetal calf serum); Pancreatin (0.25% (w/v) solution was formulated with PBS, 0.53 mM of EDTA was added in the formulation); PBS; 96-well culture plate.
(§2) 1. A plate (10 cm) of cells in logarithmic growth phase that were normally cultured was collected;
(§3) 2. The culture solution was sucked out. The plate was washed with 5 mL of PBS once or twice;
3. PBS was sucked out. 1.5 mL of 0.25% pancreatin was added to the plate to infiltrate the cells for 1 min;
4. The culture plate was placed in an incubator. Digestion was carried out for about 3 min at 37° C.;
(§4) 5. 3 mL of complete culture solution was added to the culture plate to stop the digestion. The cells were carefully scoured with micropipette (1 mL) to give a uniform cell suspension. The suspension was implanted into a 96-well cell culture disc by 2000 cells/100 μL per well. The culture plate was incubated overnight under 5% CO2 at 37° C. In day 2, 100 μL of culture solution comprising a compound was added in each well. The plate was further incubated for 72 h under 5% CO2 at 37° C.;
6. The culture solution was sucked out;
7. 100 μL of serum-free culture solution containing 0.5 mg/mL MTT was added in each well. The plate was incubated for 3 h;
8. The culture solution was carefully sucked out;
9. […]
10. OD values were determined at 490 nM. […]

SK-Br-3 cells = experiment: SK-Br-3 cell growth inhibition test (SRB assay); type: cell-based, human; settings: 72 h
Protocol: SK-Br-3 Cell Growth Inhibition Test (SRB Assay)
as §1
Culture medium: 85% DMEM+15% FBS; pancreatin (0.25% (w/v) solution was formulated with PBS, 0.53 mM of EDTA was added in the formulation); PBS; 96-well culture plate.
as §2, §3
3. 1.5 mL of 0.25% pancreatin was added to the plate to infiltrate the cells;
4. The pancreatin was sucked out. The culture plate was placed in an incubator. Digestion was carried out for about 2 min at 37° C.;
as §4, with “5. 4” for “5. 3”, “uniform single” for “uniform”, “culture plate” for “culture disc”, “by 10000” for “by 2000”
6. The culture solution was sucked out. 100 uL of TCA fixed cells which were diluted to 10% were added to each well. The plate was kept in a refrigerator for 1 h at 4° C.
7. TCA stationary liquid was sucked out. […]
13. OD values were determined at […]. […]

mice of ICR strain = experiment: Assay on MTD (maximum tolerated dose) in vivo of mice; settings: for MTD: caudal vein injection, q4d×5 administration regimen; for Mortality Rate (%) / Number of Dead Animals ♂/♀: i.v., 5♂/5♀ per group; for Number of Dead Animals ♂/♀: 5 administrations
Protocol: Assay on MTD (Maxium Tolerated Dose) In Vivo of Mice
Assay on Maxium Tolerated Dose of Compound
Assay animals: mice of ICR strain with a weight of 18-22 g, purchased from Beijing Vital River Laboratories Limited, License SCXK (jing) 2007-0001.
Administration Regimen: each experimental animal was administered with corresponding dosage of tested substance once by injection of caudal vain every three days. Each dosage was initially designed as 5 times of administration. The specific time of administration depended on the conditions of the animals. It should be carefully observed the behavior conditions of the animals within 2 hours after administration. The animal's behavior was observed every 4 hours in the day of administration. The survival conditions and weight of animals were recorded every day and observed for whether abnormality occurred on the body surface thereof. The experimental animals were sacrificed on 14 day after administration and dissected for observation.
I group: (20 mg/kg) group;
II group: (25 mg/kg) group;
III group: (30 mg/kg) group;
IV group: solvent control group;
There were four groups in total. Each group consisted of five male mice and five female mice.
I group: (40 mg/kg) group;
II group: (45 mg/kg) group;
III group: (50 mg/kg) group;
IV group: (55 mg/kg) group;
V group: (60 mg/kg) group;
There were five groups in total. Each group consisted of six male mice and six female mice.
a represents that the experimental animal died immediately after the injection of drug rather than death caused by cytotoxicity.
I group: (30 mg/kg) group;
II group: (40 mg/kg) group;
IV group: (60 mg/kg) group;

Row | Structure (SMILES) | Inhibition Ratio (%) (NCI-H446 cells) | solubility of the compound in water [1] | IC50 (NCI-H460 cells) [nM] | IC50 (SK-Br-3 cells) [nM] | MTD (mice of ICR strain) | MTD (mice of ICR strain; molar equivalent) [mmol/kg] | Mortality Rate (%) (mice of ICR strain; 30 mg/kg, 5 administrations (total 150 mg/kg)) | Number of Dead Animals ♂/♀ (mice of ICR strain; 30 mg/kg) | Mortality Rate (%) (mice of ICR strain; 40 mg/kg, 5 administrations (total 200 mg/kg)) | Number of Dead Animals ♂/♀ (mice of ICR strain; 40 mg/kg) | Mortality Rate (%) (mice of ICR strain; 50 mg/kg, 5 administrations (total 250 mg/kg)) | Number of Dead Animals ♂/♀ (mice of ICR strain; 50 mg/kg) | Mortality Rate (%) (mice of ICR strain; 60 mg/kg, 5 administrations (total 300 mg/kg)) | Number of Dead Animals ♂/♀ (mice of ICR strain; 60 mg/kg)
1 | CC(=O)O.COc1cccc2c1C(=O)c1c(O)c3c(c(O)c1C2=O)CC(O)(C(=O)COC(=O)CCC(=O)NCCCN1CCN(C)CC1)CC3O[C@H]1C[C@H](n2cccc2)[C@H](O)[C@H](C)O1 (stereo partly drawn) [Example 81, 10-((3′-(pyrrol-1-yll)-2′,3′,6′-trideoxy-alphal-l-lyxo-hexylpyranyl)oxy)-7,8,9,10-tetrahydro-6,8,11-trihydroxy-13-oxo-14-(4-((3-(4-methylpiperazin-1-yl)propyl)amino)-4-oxo-butyrato)-1-methoxy-5,12-naphthalenedione acetate] | 56.8 | more than 7 mg/ml |  |  |  |  |  |  |  |  |  |  |  | 
2 | COc1cccc2c1C(=O)c1c(O)c3c(c(O)c1C2=O)CC(O)(C(=O)COC(=O)CCC(=O)O)CC3OC1CC(n2cccc2)C(O)C(C)O1 (stereo not drawn) [Compound A, 3′-pyrrolyldoxorubicin-14-oxo-succinic acid monoester, reference compound] |  |  | 21 | 93 | approximately 30 mg/kg | ~0.0433 | 10 | 0/1 | 50 | 3/2 | 100 | 5/5 | 100 | 5/5
3 | COc1cccc2c1C(=O)c1c(O)c3c(c(O)c1C2=O)CC(O)(C(=O)COC(=O)CCC(=O)NCCOCCO)CC3OC1CC(n2cccc2)C(O)C(C)O1 (stereo not drawn) [Example 62] | 64.6 |  |  |  |  |  |  |  |  |  |  |  |  | 
